Among the test systems are HOP-92 NSCLC; HL-60(TB) leukemia; OVCAR-5 ovarian; MDA-MB-435; SF-539 CNS; HS 578T breast; DU-145 prostate; IGROV1 ovarian; KM12 colon; COLO 205 colon.
Holding throughout (test): DTP human tumour cell line panel, 48 h

A word on the GI50: it is the concentration at which growth is held to half of that of the control. A word on the TGI: it is the concentration giving total growth inhibition. High values mean less potent growth arrest, low ones more potent growth arrest.

Each structure is given as a SMILES string.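 Protocol summary: plate cells (96-well), add compound at 5 concentrations, incubate 48 h, interpolate endpoints linearly. At the GI50, growth is halved. At the TGI there is no net growth.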

Turning to `C1CCC([PH+](C2CCCCC2)C2CCCCC2[PH+](C2CCCCC2)C2CCCCC2)CC1.O=C(C1[CH-]CCCC1)C1CCCC[N-]1.[Au]` (stereo not given), the GI50 is 0.22 µM in the experiment with HOP-92 NSCLC; 0.249 µM in the experiment with HL-60(TB) leukemia; 0.343 µM in the experiment with OVCAR-5 ovarian; 0.229 µM in the experiment on MDA-MB-435; 0.31 µM in the experiment with SF-539 CNS; 0.225 µM in the experiment with HS 578T breast. Moreover, the concentration for 50% growth inhibition (GI50) in the experiment on DU-145 prostate was 0.298 µM. Besides, the TGI in the experiment with HOP-92 NSCLC was 0.89 µM; in the experiment on HL-60(TB) leukemia it was 0.731 µM; with OVCAR-5 ovarian, 1.53 µM; in the experiment with MDA-MB-435, 0.704 µM; in the experiment on SF-539 CNS it was 1.28 µM; in the experiment with HS 578T breast it was 1.56 µM. This molecule displayed a TGI with DU-145 prostate of 1.61 µM.

In the case of `CCCCCCCCCCCCCCCCCCOc1ccccc1CC(=O)OCC[N+]1(C)CCCC1`, the GI50 was 1.52 µM in the experiment on IGROV1 ovarian; 1.22 µM in the experiment on HOP-92 NSCLC; 2.1 µM in the experiment with HL-60(TB) leukemia; 2.02 µM with OVCAR-5 ovarian; 1.73 µM in the experiment on MDA-MB-435; 1.86 µM in the experiment with SF-539 CNS. The GI50 was 2.41 µM with HS 578T breast, 1.88 µM in the experiment with KM12 colon and 2.21 µM in the experiment on DU-145 prostate. Also, the TGI with IGROV1 ovarian stood at 3.06 µM; in the experiment with HOP-92 NSCLC it was 3.37 µM; with HL-60(TB) leukemia it was 5.07 µM; in the experiment on OVCAR-5 ovarian, 5.31 µM; with MDA-MB-435, 3.31 µM; in the experiment on SF-539 CNS it was 3.62 µM. The TGI in the experiment with HS 578T breast was determined as 7.01 µM; in the experiment with KM12 colon, 3.49 µM; in the experiment on DU-145 prostate, 5.29 µM.

As for `O=C1CSC(c2ccc(Cl)cc2Cl)N1c1ccc(F)cc1` (stereo not given), the GI50 was 16.1 µM in the experiment on IGROV1 ovarian; 17.6 µM in the experiment with HOP-92 NSCLC; 21.2 µM with HL-60(TB) leukemia; 16 µM in the experiment on OVCAR-5 ovarian; 20.8 µM with MDA-MB-435; 19.2 µM in the experiment on SF-539 CNS. The GI50 in the experiment on HS 578T breast is 16.8 µM; in the experiment with KM12 colon, 15.6 µM; with DU-145 prostate, 16.1 µM. Further, the TGI in the experiment with IGROV1 ovarian worked out at 33.1 µM; in the experiment with HOP-92 NSCLC, 32.8 µM; with HL-60(TB) leukemia, 45.6 µM; in the experiment on OVCAR-5 ovarian, 29.5 µM; with MDA-MB-435, 43 µM; with SF-539 CNS it was 33.4 µM. Also, the TGI with HS 578T breast came out at 39.9 µM; with KM12 colon, 29.8 µM; with DU-145 prostate, 29.6 µM.

In the case of `C=C1CCC(CC[C@@H]2CC[C@]3(OC2)O[C@@]2(O)CC[C@]3(C)OC2(C)C)C(C)(C)[C@H]1C/C=C1/C(=O)OC[C@@H]1O` (stereo not given in full), the TGI with IGROV1 ovarian is 11.6 µM; with HOP-92 NSCLC, 6.51 µM; in the experiment on COLO 205 colon it was 16.3 µM; in the experiment with OVCAR-5 ovarian, 6.65 µM; in the experiment with MDA-MB-435, 5.82 µM; in the experiment on SF-539 CNS, 9.18 µM. Further, the figures for the TGI in the experiment on HS 578T breast, in the experiment with KM12 colon and in the experiment on DU-145 prostate were 28.8 µM, 6.35 µM and 14.8 µM, respectively.

Regarding `COc1ccc(C(=O)COc2ccc(/C=C3\COc4ccc(OC)cc4C3=O)cc2)cc1`, the GI50 in the experiment on IGROV1 ovarian was 26 µM; in the experiment on COLO 205 colon it was 51.8 µM; with HL-60(TB) leukemia it was 11 µM; with OVCAR-5 ovarian, 30.2 µM; in the experiment on MDA-MB-435, 6.46 µM; in the experiment on SF-539 CNS it was 25.2 µM. Besides, the GI50 was 10.7 µM with HS 578T breast, 8.72 µM with KM12 colon and 31 µM with DU-145 prostate. Moreover, the concentration for total growth inhibition (TGI) in the experiment with IGROV1 ovarian is 54.7 µM; with COLO 205 colon, > 100 µM; in the experiment with HL-60(TB) leukemia it was 62.8 µM; with OVCAR-5 ovarian, 86.9 µM; with MDA-MB-435, 78.5 µM; in the experiment with SF-539 CNS, 65.6 µM. Further, the TGI in the experiment with HS 578T breast was 34.2 µM; in the experiment with KM12 colon, 85.8 µM; in the experiment on DU-145 prostate, > 100 µM.

As to `O=c1c2ccccc2c(=O)c2c1[nH]c1c(-c3ccccc3)c(-c3ccccc3)c(=O)c12`, the GI50 was 3.39 µM with IGROV1 ovarian; 3.23 µM in the experiment on HOP-92 NSCLC; 3.94 µM with COLO 205 colon; 4.27 µM in the experiment on OVCAR-5 ovarian; 3.24 µM with MDA-MB-435; 1.85 µM in the experiment on SF-539 CNS. For the same molecule, the GI50 was 5.67 µM in the experiment on HS 578T breast, 2.3 µM in the experiment on KM12 colon and 2.71 µM in the experiment with DU-145 prostate. The TGI stood at 20.4 µM in the experiment on IGROV1 ovarian; 12.7 µM in the experiment on HOP-92 NSCLC; 13.1 µM in the experiment with COLO 205 colon; 14.7 µM in the experiment on OVCAR-5 ovarian; 9.42 µM in the experiment with MDA-MB-435; 3.74 µM with SF-539 CNS. Also, the results for the concentration for total growth inhibition (TGI) in the experiment on HS 578T breast, in the experiment on KM12 colon and in the experiment with DU-145 prostate were 31.1 µM, 6.34 µM and 9.44 µM, respectively.

As to `O=C1CC2c3ccccc3CCC2c2ccccc21` (stereo not given), the TGI was 86.6 µM in the experiment with IGROV1 ovarian; 11.2 µM in the experiment on COLO 205 colon; > 100 µM in the experiment with HL-60(TB) leukemia; > 100 µM in the experiment with OVCAR-5 ovarian; 98.6 µM in the experiment with MDA-MB-435; 53.3 µM in the experiment with SF-539 CNS. In addition, the total growth inhibition concentration (TGI) was 53.4 µM with HS 578T breast, 26.8 µM in the experiment on KM12 colon and > 100 µM in the experiment on DU-145 prostate.

Turning to `O=C(/C=C\c1ccc(NCc2ccc(C(=O)O)cc2)cc1)CCl`, the GI50 with IGROV1 ovarian was 16.7 µM; in the experiment on COLO 205 colon, 14.2 µM; in the experiment on HL-60(TB) leukemia, 14.8 µM; with OVCAR-5 ovarian, 17.8 µM; in the experiment with MDA-MB-435, 15.8 µM; in the experiment on SF-539 CNS, 15.5 µM. Moreover, the figures for the GI50 in the experiment with HS 578T breast, with KM12 colon and in the experiment with DU-145 prostate were 15.7 µM, 17 µM and 17.3 µM, respectively. Moreover, the TGI turned out to be 37.2 µM in the experiment with IGROV1 ovarian; 29.4 µM in the experiment on COLO 205 colon; 36.7 µM with HL-60(TB) leukemia; 34.5 µM in the experiment with OVCAR-5 ovarian; 31.9 µM with MDA-MB-435; 29.3 µM in the experiment on SF-539 CNS. For the same molecule, the results for the TGI in the experiment on HS 578T breast, in the experiment with KM12 colon and in the experiment on DU-145 prostate were 45.6 µM, 32 µM and 31.9 µM, respectively.

`C#Cc1c(I)n(C2OC(CO[Si](C)(C)C(C)(C)C)C3OC(C)(C)OC32)c(=O)[nH]c1=O` (stereo not given): the GI50 with IGROV1 ovarian is 4.46 µM; in the experiment with HOP-92 NSCLC, 12.4 µM; in the experiment on COLO 205 colon, 2.24 µM; in the experiment on OVCAR-5 ovarian, 20.4 µM; in the experiment on MDA-MB-435, 15 µM; with SF-539 CNS, 16.6 µM. The GI50 is 19.7 µM in the experiment on HS 578T breast, 16.9 µM in the experiment on KM12 colon and 4.57 µM with DU-145 prostate. The TGI came to 19.1 µM with IGROV1 ovarian; 26.1 µM in the experiment on HOP-92 NSCLC; 4.8 µM in the experiment with COLO 205 colon; 37 µM in the experiment with OVCAR-5 ovarian; 31 µM in the experiment on MDA-MB-435; 31.4 µM in the experiment with SF-539 CNS. Also, the results for the TGI with HS 578T breast, in the experiment with KM12 colon and in the experiment with DU-145 prostate were 66.8 µM, 35.6 µM and 19.4 µM, respectively.

The record behind these values is PubChem BioAssay (NCI).
